These are literature values, as cited in patent US11612614B2, “Isomorphs of Remdesivir and methods for synthesis of same” (Anzalp Pharmasolutions Pvt. Ltd., priority 2020, dated 2023).

“Also recorded” adds a separate entry of the source.

Test in data set [1]: not given
The source holds these as a separate data set.

Regarding `CCC(CC)COC(=O)[C@H](C)N[P@](=O)(OC[C@H]1O[C@@](C#N)(c2ccc3c(N)ncnn23)[C@H](O)[C@@H]1O)Oc1ccccc1` [Remdesivir, 2-ethylbutyl (2S)-2-[[[(2R,3S,4R,5R)-5-(4-aminopyrrolo[2,1-f][1,2,4]triazin-7-yl)-5-cyano-3,4-dihydroxyoxolan-2-yl]methoxy-phenoxyphosphoryl]amino]propanoate], the “chemical stability in aqueous media” value is recorded as “chemically unstable”. Besides, the solubility in ethanol result in data set [1] (ethanol) was “soluble”. Further, the solubility in water entry in data set [1] (water) is “practically insoluble; also recorded: relatively insoluble”.
